# Results taken from patent EP4088722A1, “PHARMACEUTICAL COMPOSITIONS, USES THEREOF AND METHODS FOR TREATMENT OF GENETIC DISEASES CAUSED BY INTRONIC SPLICE-ACCEPTOR SITE MUTATIONS” (priority 2021, dated 2022).
# Tests used:
# [1] = test system: AGA minigene construct without luciferase (c.128-2A>G); assay: cells; type: cell-based, human; conditions: 24 h; for fold induction at 7500 µM: Homo sapiens, HEK-293T, read-out: increase in the correctly spliced product (exons 2 and 3); for changes in the splicing (correctly spliced product): 7.5 mM, qRT-PCR
# Protocol: (§1) For qPCRs, total RNA was isolated with peqGOLD TriFast™ (VWR, Darmstadt, Germany) and included a DNAse step. Total RNA (1-3 µg) were reverse transcribed with 150 fmol oligo(dT) primers and M-MuLV reverse transcriptase (NEB, Frankfurt, Germany) in a total volume of 45 µL. Real-time quantitative PCRs were performed using the CFX Connect Real-Time PCR Detection System (Bio-Rad, Munich, Germany). Annealing temperature was 60°C for all primers. The reactions were done as duplicates with 0.8 µL cDNA in a total volume of 10 µL using iTaq-TMUniversal SYBR Green Supermix (Bio-Rad). PCR products were quantified with the ACt-method. For normalization, the mean of the reference genes B2M, Rpl13a, Ywhaz and TBP was used. Table 2. Sequences of primers used for the quantitative real-time PCR.
# RNA was isolated from the cells, reverse transcribed to cDNA, and a qRT-PCR with a fwd primer residing in exon 2 and a reverse primer in the plasmid vector (3'-untranslated region of the resulting RNA) was performed. Thus, amplification of a PCR product of 271 bp is only observed when both exons 2 and 3 are present in the mRNA.
# [2] = test system: AGA-luciferase minigene constructs (c.128-2A>G); assay: AGA luciferase minigene splicing assay in AGU patient fibroblasts; type: cell-based, human; conditions: 24 h; for luciferase readout: increasing amounts; for luciferase activity: 7.5 mM
# [3] = test system: endogenous AGA mRNA with exon 2; type: cell-based, human; conditions: 24 h, patient fibroblasts
# Protocol: (§2) Fibroblasts were seeded into 6-well plates and treated with the following compounds: caffeine, theophylline, theobromine, pentoxifylline, doxofylline(1-7.5 mM, solvent H2O; TCI, Eschborn, Germany), luteolin (10-50 µM, solvent DMSO; Biozol, Eching, Germany) or kinetin (10-100 µM, solvent DMSO; TCI, Eschborn,Germany) for 24 h (RNA) or 48 h (protein lysate). Cells were harvested in lysis buffer (50 mM Tris pH 7.4, 150 mM NaCl, 2 mM EDTA, 1% NP-40), supplemented with protease inhibitor cocktail (Sigma-Aldrich). Protein concentrations in the lysates were determined according to the Bradford method.
# as §1
# AGA mRNA = assay: qRT-PCR of AGA mRNA in control fibroblasts; type: cell-based, human; conditions: 7.5 mM caffeine, 24 h
# Protocol: as §2, §1
# [4] = test system: AGA minigene containing the splice variant (c.128-2A>G); assay: AGA minigene luciferase splicing assay in AGA knockout HEK293T cells; conditions: for splicing of the AGA minigene / variant (summary statement): overall statement in the description, across the AGA assays
# Protocol: HEK293T (human embryonic kidney cells) cells were cultured in Dulbecco's modified Eagle's medium (DMEM) with high glucose, 10% fetal calf serum (FCS), 1 % penicillin/streptomycin (all from Gibco, Thermo Fisher Scientific, Germany). […] Immortalized, hTERT-transformed normal human skin fibroblasts were used as control [(Banning, A.; et al. Identification of Small Molecule Compounds for Pharmacological Chaperone Therapy of Aspartylglucosaminuria. Sci Rep 2016, 6, 37583]. All fibroblasts were cultured in DMEM (high glucose), 10% FCS, 1 % penicillin/streptomycin, 1 % non-essential amino acids and 1 % sodium pyruvate. All cells were grown at 8% CO2 and 37°C.
# For transient transfection, cells were seeded onto 12-well plates on the day before transfection. For transfections, 400 ng of expression plasmid DNA and 50 ng of pRL-TK Renilla luciferase control reporter vector (Promega) were transfected using MACSfectin™ (Miltenyi Biotec, Bergisch Gladbach, Germany) according to the manufacturer's protocol. Fibroblasts were transfected with Neon Transfection System (Invitrogen). The following day, the cells were transferred onto 24-well plates, treated with specific substances and harvested after 24 h of treatment in lysis juice for firefly and renilla luciferase assay (PJK GmbH, Kleinblittersdorf, Germany). Determination of firefly and renilla luciferase activity was performed with a Tecan infinite M200 plate reader using 20 µl of lysate and 85 µl of beetle or renilla juice (PJK) as reagents. Relative luciferase activity was calculated by dividing the firefly luciferase activity by the renilla luciferase activity.
# This construct contains the splice acceptor site mutation -2A>G in intron 1. If exon 2 is spliced out, altered reading frame in exon 3 produces an early STOP codon and prevents the expression of luciferase. However, if all three exons are correctly spliced, the luciferase ORF is translated in-frame as a fusion protein with the AGA protein sequence coded by exons 1-3.
# AGA activity = AGA activity in patient fibroblasts, colorimetric Morgan-Elson assay with AADG as substrate; type: cell-based, human; conditions: 25 µM luteolin, 48 h
# Protocol: as §2
# In most experiments, AGA activity was measured fluorimetrically as described in Banning, A.; et al. Sci Rep 2016, 6, 37583. […] In short, 12.5 µl of cell lysate were mixed with 100 nmol AADG, 3.35 µl 0,5 M KH2PO4, pH8, and 0.9% NaCl to reach a total volume of 25 µl. […] The liberated N-acetylglucosamine was measured at 585 nm. […]
# Due to these encouraging data, the AGA activity was measured in patient fibroblasts treated with 25 µM luteolin (Figure 10b). Since luteolin acts as a quencher in our standard fluorescence-based AGA activity measurement [Schoefer, L.; Braune, A., FEMS Microbiol Lett 2001, 204, 277-280, and our own observations], we used a colorimetric activity assay [Tikkanen, R.; et al., DNA Cell Biol 1995, 14, 305-312] that is less sensitive but not subject to quenching by luteolin.
# [5] = 7.5 mM, 24 h, compared to untreated cells
compound,measurement,setting,value
"Cn1c(=O)c2c(ncn2C)n(C)c1=O [caffeine, 1,3,7-trimethylxanthine]",fold induction at 7500 µM,[1],~20
same,luciferase readout,[2],"significant, dose dependent increase in the luciferase readout"
same,endogenous AGA mRNA splicing products that contain exons 2 and 3,[3]; 7.5 mM caffeine,significantly increased to a level that corresponds to the untreated control fibroblasts
same,AGA mRNA,AGA mRNA,increase in the AGA mRNA in control fibroblasts
same,luciferase activity,[4]; [5],highest increase
"Cn1c(=O)c2c(ncn2CC2OCCO2)n(C)c1=O [doxofylline, 7-(1,3-dioxolan-2-ylmethyl)-1,3-dimethylpurine-2,6-dione]",changes in the splicing (correctly spliced product),[1],did not produce significant changes in the splicing
same,luciferase activity,[2],failed to do so
same,luciferase activity,[4]; [5],significantly increased luciferase activity
same,splicing of the AGA minigene / variant (summary statement),[4],consistently failed to exert any significant effects
c1coc(CNc2ncnc3[nH]cnc23)c1 [kinetin],endogenous AGA mRNA with exon 2,[3]; kinetin 50 µM,no significant increase
same,luciferase activity,"[4]; kinetin, lower concentrations (from 10 µM, below 100 µM), 24 h",only minor effects
same,splicing of the AGA minigene / variant (summary statement),[4],no systematic positive effect
"O=c1cc(-c2ccc(O)c(O)c2)oc2cc(O)cc(O)c12 [luteolin, 3',4',5,7-tetrahydroxyflavone]",AGA activity,AGA activity,significant increase in the AGA activity
same,fold induction at 25 µM,"[3]; Homo sapiens, Fibroblast, luteolin 25 µM, read-out: increase of endogenous AGA mRNA with exon 2",~2.5
same,increase in luciferase activity,"[4]; 25 µM luteolin, 24 h, most efficient concentration",5-6 fold
same,luciferase activity,"[4]; all luteolin concentrations, 10 µM - 50 µM, 24 h",significant increase in luciferase activity
same,luciferase expression in Western blot,[4]; lysates of the luteolin/kinetin luciferase assay,strong luciferase expression
"CC(=O)CCCCn1c(=O)c2c(ncn2C)n(C)c1=O [pentoxifylline, 3,7-dimethyl-1-(5-oxohexyl) xanthine]",fold induction at 7500 µM,[1],5 to 10
same,luciferase activity,[2],significantly increased the luciferase activity
same,luciferase activity,[4]; [5],significantly increased luciferase activity
"Cn1cnc2c1c(=O)[nH]c(=O)n2C [theobromine, 3,7-dimethylxanthine]",changes in the splicing (correctly spliced product),[1],did not produce significant changes in the splicing
same,luciferase activity,[2],failed to do so
same,luciferase activity,"[4]; four concentrations 1 mM - 7.5 mM, 24 h, compared to untreated cells",non-significant changes
"Cn1c(=O)c2[nH]cnc2n(C)c1=O [theophylline, 1,3-dimethylxanthine]",fold induction at 7500 µM,[1],5 to 10
same,luciferase readout,[2],"significant, dose dependent increase in the luciferase readout"
same,luciferase activity,[4]; [5],significantly increased luciferase activity
